Each structure is given as a SMILES string. Like-named read-outs stand apart in the source and are kept apart here.

Data set [1] relates to plant cells. Particulars: Table 2, range over plant species, literature; cited from earlier work.
Data set [2] relates to wild type/non-transgenic lines of Brassica juncea cv. Varuna. The data set is described as follows: Seed germination in the presence of kanamycin. The class given is in vivo.
Data set [3] concerns Nicotiana tabacum cv. Petit Havana SR1 shoots. The procedure:
In one set of experiments uniformly looking ˜1 cm long shoots were taken while in a second set of experiments a bunch of 6-8 shoots were used.
For this purpose, shoots of Nicotiana tabacum cv. Petit Havana SR1 were obtained by multiplying the shoots regenerated from the leaf segments on MS medium supplemented with 2 mg/l BAP.

The test system of data set [4] is shoots of codAps transgenic lines A, B, D and E of Brassica juncea cv. Varuna. The source says: The codA gene was isolated in the inventors' laboratory from local strain of Arthrobacter globiformis (GenBank accession number AY589052, hereafter referred as codAps gene) and cloned into pPZP200lox(npt 11) vector (obtained from Dr. Deepak Pental, Department of Genetics, South Campus, University of Delhi, New Delhi, India). The resultant vector named as pSG was electroporated into Agrobacterium tumefaciens strain GV3101. Hypocotyl and cotyledonary petiolar explants were excised from 6 d old sterile seedlings were transformed using Agrobacterium tumefaciens strain GV3101/pSG/codAps.

Data set [5] relates to Brassica juncea cv. Varuna wild type seeds/seedlings. The procedure:
(§1) T2 seeds of various independent homozygous transgenic lines of Brassica juncea cv. […] Homozygous transgenic genotypes were identified based on 100 percent germination of T2 seed of various independent transformed lines in the presence of 50 mg/l kanamycin.

Data set [6] relates to homozygous codAps transgenic lines A, B, D and E of Brassica juncea cv. Varuna seeds/seedlings. Particulars: for seedling growth: transgenic lines. The procedure: as §1
For these studies seeds from four homozygous transgenic lines (lines A, B, D and E) of T2 generation were used. The homozygous genotypes were identified based on 100 percent germination of seed in the presence of 50 mg/l kanamycin (i.e. otherwise lethal to wild type/non-transgenic lines).

For data set [7], the system named is Brassica juncea cv. Varuna explants (wild type).
Data set [8] has as its system Brassica juncea wild type shoots.
The test system of data set [9] is Nicotiana tabacum L. The settings on record: Present Investigations.
For a further data set, the system named is Brassica juncea L. Particulars: Present Investigations.
In data set [10] the test system is plant cells. Particulars: Table 2, choline, present investigations.
Another data set has as its system Solanum tuberosum L. Particulars: Haldrup et al. (1998); cited from earlier work.
In data set [11] the test system is Lycopersicon esculentum L. The settings on record: Haldrup et al. (1998); cited from earlier work.
Data set [12] has as its system Nicotiana tabacum L. The settings on record: Haldrup et al. (1998); cited from earlier work.
Setting [13] is: 60 mM choline, transgenic lines.
[14] abbreviates: lower concentrations of choline, shoot induction medium.

Turning to `CP(=O)(O)CC[C@H](N)C(=O)O` [Phosphinothricin], the Selection concentration with plant cells [1] is 5 to 10 mg/L.

As to `NC[C@H]1O[C@H](O[C@H]2[C@H](O)[C@@H](O[C@H]3O[C@H](CO)[C@@H](O)[C@H](N)[C@H]3O)[C@H](N)C[C@@H]2N)[C@H](O)[C@@H](O)[C@@H]1O` [Kanamycin], the “kanamycin concentration lethal to wild type/non-transgenic lines” value in [2] came to 50 mg/L.

In the case of `C[N+](C)(C)CCO.[Cl-]` [Choline, choline chloride], the “time to loss of green pigmentation followed by senescence/death after inoculation” value in [3] (40 mM choline) was no more than 7 days. In data set [3] (MS medium with choline chloride 20 and 40 mM), the shoot growth entry was “significantly curtailed shoot growth”. The “growth of the shoots” value in data set [4] (40 mM choline, transgenic lines) is reported as “no significant alteration in the growth”. Also, the green pigmentation entry in [4] (setting [13]) is given as “no loss in green pigmentation”. Further, the growth of shoots result is “suppression in the growth” in data set [4] (setting [13]) and “significantly curtailed the growth of shoots” in data set [8] (MS medium with choline chloride 5-60 mM, wild type). For the same compound, the “choline concentration that shoots were able to withstand” value in data set [4] (transgenic lines A, B, D, E, MS medium) is no more than 60 mM. Moreover, in data set [5] (40 mM choline, MGM, 30 d), the “fresh weight of seedlings, lower than those raised in absence of choline” value is listed as 90%. Also, the “seed germination and early seedling growth” value in data set [5] (MGM (half strength MS without sucrose/organics) with choline) is “significantly curtailed”. The “percent seed germination as well as seedling growth” value in data set [5] (MS medium supplemented with choline (20, 40 mM)) is given as “suppressed significantly”. The seed germination entry in data set [5] (MS medium, 40 mM choline) is recorded as “almost no/little seed germination”; in data set [6] (transgenic lines A, B, D, E, MS medium, all concentrations of choline tested (20, 40 mM)), 100%. In addition, the “fresh weight of seedlings, lower than respective controls” value in data set [6] (four independent transgenic lines, 40 mM choline, MGM, 30 d) was 25-30%. Also, the “seed germination and seedling growth” value in [6] (transgenic lines A, B, D, E, MGM, 40 mM choline vs 20 mM) is on record as “delay in seed germination as well as reduction in seedling growth”. The seedling growth entry in data set [6] (MS medium, 20 mM choline and below) was “comparable to those grown in the absence of choline”; in data set [6] (MS medium, 40 mM choline) it was “significant reduction in seedling growth”. Besides, the “cotyledonary explants that lost green pigmentation completely” value in data set [7] (40 mM choline) is on record as roughly 100%. The cultures exhibiting callogenesis in data set [7] (40 mM choline) is on record as 100%. Besides, the “shoot induction (caulogenesis) from hypocotyl and cotyledonary petiolar explants” value in data set [7] (choline chloride 10, 20, 30, 40 mM in shoot induction medium (MS + BAP, NAA, AgNO3), 20 d) was “suppressed shoot induction”. Moreover, the “expansion of the cotyledonary leaves of cotyledonary petiolar explants” value in data set [7] (choline in shoot induction medium, effect increases with concentration) is recorded as “significantly curtailed the expansion of the cotyledonary leaves”. In addition, the “callogenesis i.e. callus induction” value in [7] (setting [14]) was “did not cause any significant alteration in callogenesis”. For the same compound, the rhizogenesis entry in data set [7] (setting [14]) is “promoted rhizogenesis”. In addition, the “time to death of shoots after inoculation” value in [8] (choline 20 mM and above, wild type shoots) is no more than 15 days. Besides, in data set [8] (wild type shoots, MS medium), the “choline concentration giving loss in green pigmentation followed by browning/senescence leading to death” value is no less than 20 mM. Besides, the Selection concentration with Nicotiana tabacum L. [9], in the data set with Brassica juncea L. and in the data set with plant cells [10] was 5584 mg/L each time.

As for `[Cl-].[K+]` [potassium chloride, reference compound], the shoot induction result in data set [7] (potassium chloride 10, 20, 30, 40 mM in place of choline chloride) is on record as “no significant alteration”. Also, the “expansion of cotyledons and/or green pigmentation” value in [7] (potassium chloride at highest concentration (40 mM)) is given as “did not cause any suppression in the expansion of cotyledons and/or alteration in green pigmentation”.

Consider `O=C[C@H](O)[C@@H](O)[C@H](O)CO` [Xylose], for which the Selection concentration in the data set on Solanum tuberosum L. was 3750 mg/L; in data set [11] it was 15000 mg/L; in the data set on Nicotiana tabacum L. [12], 20000 mg/L; with plant cells [1], 3750 to 20000 mg/L.

The record behind these values is US8101410B2 (Entelechon GmbH, priority 2005, dated 2012).
